Like-named read-outs stand apart in the source and are kept apart here.
Experiments:
[1] = system: HT-29; assay: Cytotoxic assay (IC50) in HT-29; type: cell-based, human
From the text: (§1) DS-B: cells were exposed to a chemical stress comprising a chemical stimulation with chemotherapeutic agents commonly used for the colorectal cancer: 5-FU (Sigma, F6627), oxaliplatin (Sigma, Y0000271) or SN-38 (7-ethyl-10-hydroxy-camptothecin) (Sigma, H0165). In particular, the association of a chemotherapeutic agent with each cell line was based on literature assumptions (Table 3), and further on the degree of resistance of the cell line to each chemotherapeutic agent. For each cell line, this resistance level to each chemotherapeutic agent was assessed by determining the half maximal inhibitory concentration (IC50) in a cytotoxic assay.

[2] = system: LoVo; assay: Cytotoxic assay (IC50) in LoVo; type: cell-based, human
From the text: as §1

[3] = system: CD243 (MDR-1); assay: FACS marker expression: CD243; type: cell-based, human; conditions: LoVo cells treated with 5-FU
Procedure: (§2) A comparison of marker expression was carried out to validate each DS-A and DS-B.
(§3) Finally, the vaccine composition (DP or “STC-1010”) could be formulated by pooling all six DS (3 DS-A—one for each cell line; and 3 DS-B—one for each cell line) in 100 μL doses (each comprising 3 million cells).

[4] = system: colorectal human cell lines; conditions: according to the literature; cited from earlier work
[5] = system: CD66 (CEA); assay: FACS marker expression: CD66; type: cell-based, human
Procedure: as §2

[6] = system: HCT-116; assay: Cytotoxic assay (IC50) in HCT-116; type: cell-based, human
From the text: as §1

[7] = system: SW480; assay: Cytotoxic assay (IC50) in SW480; type: cell-based; conditions: Homo sapiens, SW480 cell line
From the text: as §1

[8] = system: CD54 (ICAM-1); assay: FACS marker expression: CD54; type: cell-based, human; conditions: HT-29 cells treated with oxaliplatin
Procedure: as §2

[9] = system: CD95 (FAS receptor); assay: FACS marker expression: CD95; type: cell-based, human; conditions: HT-29 cells treated with oxaliplatin
Procedure: as §2

[10] = system: CD107 (LAMP-1); assay: FACS marker expression: CD107; type: cell-based, human; conditions: HT-29 cells treated with oxaliplatin
Procedure: as §2, §3

[11] = HT-29 cell line, cytotoxic assay, read-out: IC50
[12] = LoVo cell line, cytotoxic assay, read-out: IC50
[13] = HCT-116 cell line, cytotoxic assay, read-out: IC50

O=c1[nH]cc(F)c(=O)[nH]1 [5-FU, fluorouracil]
IC50 ([1]; Homo sapiens, HT-29): 3600 nM
IC50 ([2]; Homo sapiens, LoVo): 2400 nM
CD243 expression as compared to unstressed cells [3]: overexpression
Resistance cell lines [4]: HCT-116, HT-29, SW48, SW480
CD66 expression as compared to unstressed cells ([5]; LoVo cells treated with 5-FU): overexpression
IC50 ([6]; Homo sapiens, HCT-116): 17000 nM
IC50 [7]: 23100 nM

O=C1[O][Pt]2([NH][C@@H]3CCCC[C@H]3[NH]2)[O]C1=O [Oxaliplatin, oxaliplatin]
CD54 expression as compared to unstressed cells [8]: overexpression
IC50 [1, 11]: 460 nM
IC50 [2, 12]: 1100 nM
CD95 expression as compared to unstressed cells [9]: overexpression
CD107 expression as compared to unstressed cells [10]: overexpression
Resistance cell lines [4]: HCT-116, HT-29, LoVo, SW48
IC50 [6, 13]: 600 nM

CCc1c2c(nc3ccc(O)cc13)-c1cc3c(c(=O)n1C2)COC(=O)[C@]3(O)CC [SN-38, 7-ethyl-10-hydroxy-camptothecin]
IC50 [1, 11]: 130 nM
IC50 [2, 12]: 22 nM
Resistance cell lines [4]: HCT-116, HT-29, SW48
CD66 expression as compared to unstressed cells ([5]; HCT-116 cells treated with SN-38): overexpression
IC50 [6, 13]: 50 nM
